For data set [1], the system named is HepG2 cells. The experiment in a line: Cell vitality (ATP lite kit). The class given is cell-based, human. The settings on record: for Vitality %): [conc.]final 1.0 mM, HepG2, 72-hour (3x24 hr) treatment, control = 100. Here is the method:
In order to analyse the effects of the solution of the invention, alpha lipoic acid contained therein was digested in artificial gastric juice and subsequently administered in the culture medium at the final concentration of 0.5 or 1mM. The cell vitality effects recorded were compared with those achieved in a parallel control experiment wherein alpha lipoic acid dissolved in a solvent of election for cell studies, i.e. DMSO (but not digested in gastric juice) was used. […]

In a further data set the test system is SK-N-SH cell cultures. The experiment in a line: ROS induced from H2O2 in cell cultures. The class given is cell-based, human. The settings on record: for Ros (% compared to ctrl) 24h: 24h pre-treatment, then 2 hours 1.5mM mM H2O2; for Ros (% compared to ctrl) 48h: 48h pre-treatment, then H2O2. How it is done:
Another important function ascribable to lipoic acid is that of contrasting the formation of reactive species of oxygen induced from H2O2. […] A further aim was to verify whether R-alpha lipoic acid retained this function also in an aqueous solution. For this reason, increasing doses of the same, coming from the above-used solution of the invention and subjected to digestion in artificial gastric juice, were added to the culture medium for different intervals of time (24 hr and 48 hr) before inducing an oxidative stress with H2O2. The same reaction was performed as a control, by using the R-alphaLA prepared in DMSO, but dissolved directly in medium to obtain the same working concentrations.
In Table 10, the values of ROS are reported as % with respect to those observed in the controls after 24 hours of maintenance in the culture and 2 hours of treatment with 1.5mM mM H2O2. In the first box of the Table, the results are shown as obtained after administration of R-alphaLA prepared in DMSO and then diluted directly in the medium to obtain the reference final concentrations; in the second box, on the other hand, R-alphaLA was first dissolved in the solution of the invention, subsequently digested in gastric juice and finally diluted in the medium. As summarised in Table 10, in each case, a dose-dependent response of alpha lipoic acid in preventing the formation of the ROS was observed over the first 24 hours.

The test system of data set [2] is HepG2 cells. The experiment in a line: Glucose in the medium, insulin-resistant diabetes cellular model (Glucose assay kit). The class given is cell-based, human. The settings on record: 1 mM for 48 hr; HepG2 in medium enriched with glucose 30mM; reference control = 100%. Here is the method: Lastly, the hypoglycaemia-inducing action of the lipoic acid formulated in aqueous solution of the invention was also evaluated, by utilising an insulin-resistant diabetes cellular model. HepG2 cells cultivated in a medium enriched with glucose and free of insulin mimicked certain conditions present in the hepatocytes of diabetic patients; in addition, certain functions of the culture medium, considered as a container of nutritional substances and an accumulation container for those substances excreted, could be compared to plasma circulation. […]
Table 11 reports some of the most significant results achieved by using the Sigma Aldrich Glucose assay kit to determine the glucose; more specifically, the values obtained from the culture medium following administration for 48 hr of lipoic acid (1mM) prepared in DMSO or formulated in aqueous solution at 30 % of propylene glycol, in accordance with the present invention. The most significant decrease in glucose was in fact observed with the R-enantiomer of alpha lipoic acid in the solution of the invention.

For data set [3] the following is noted: humans, oral route, 600 mg, various formulations; cited from earlier work.

As to `O=C(O)CCCCC1CCSS1` (racemic) [(RS) alphaLA (in DMSO), alpha lipoic acid], the “Vitality %)” value with HepG2 cells [1] stood at 35.48%.

Consider `O=C(O)CCCC[C@@H]1CCSS1` [(R) alphaLA (in DMSO), alpha-R-lipoic acid], for which the “cell vitality values compared to the control” value in the data set with HepG2 cells [1] (1mM, 48-hr treatment, dissolved in DMSO, HepG2, previous tests) is reported as “halved”. Also, the “Vitality %)” value in the data set on HepG2 cells [1] was 40.33%. Moreover, in the data set with SK-N-SH cell cultures (100µM), the “Ros (% compared to ctrl) 24h” value is 77.87% and the “Ros (% compared to ctrl) 48h” value is 99.26%. In the data set with SK-N-SH cell cultures (200µM), the “Ros (% compared to ctrl) 24h” value is given as 49.18% and the “Ros (% compared to ctrl) 48h” value worked out at 103.98%. The “Glucose in the medium (%)” value with HepG2 cells [2] came out at 89%.

Turning to `O=C(O)CCCCC1CCSS1` (stereo not drawn) [lipoic acid, 1,2-dithiolane-3-pentanoic acid], the bioavailability entry in data set [3] is recorded as “less than 30%”.

These data come from patent publication EP2736507B1, “BASIC ALPHA LIPOIC ACID SOLUTION AND ITS USES” (ITAPHARMA S.R.L., priority 2011, dated 2013).
